From US20250224399A1, “METHOD FOR DETECTING HOMOCYSTEINE IN PLASMA AND METHOD FOR DIAGNOSING GLIOBLASTOMA BY USING NOVEL FLUORESCENT PROBE” (UNIVERSITY-INDUSTRY COOPERATION GROUP OF KYUNG HEE …, priority 2022, published 2025)

Tests used:
[1] = Homocysteine reaction time and selectivity among amino thiols (fluorescence over 0 to 30 minutes); conditions: pH 7.4 PBS buffer
Method: In order to identify whether Compound 1 (NPO-pyr) would react with various types of aminothiols including homocysteine under neutral conditions (pH 7.4), Compound 1 and aminothiol were added to an aqueous solution of neutral conditions (pH 7.4, PBS buffer) and the fluorescence emission graph was measured.
Specifically, Compound 1 (10 μM) was reacted with homocysteine (DL-homocysteine, 10 μM), cysteine (10 μM), glutathione (L-glutathione, 10 μM), and hydrogen sulfide (10 μM) in an aqueous solution (pH 7.4, PBS buffer), and the fluorescence value was measured (excitation wavelength: 460 nm). Amino thiols including homocysteine were purchased from Sigma, TCI, and a fluorophotometer (SHIMADZU CORP. RF-6000, Japan) was used for fluorescence spectra analysis. In this connection, the cell that puts the compound into each device was a standard quartz cell with a thickness of 1 cm (internal volume=[…]).

[2] = Selectivity toward biomolecules, thiols and metal ions (fluorescence at 550 nm); conditions: pH 7.4 PBS buffer, excitation 460 nm, emission 550 nm
Method: An aqueous solution (pH 7.4, PBS buffer) was used, and metal ions were purchased from Aldrich, Oriental Chemicals, Samchun chemicals, and Duksan chemicals. Compound 1 was dissolved in dimethyl sulfoxide (DMSO) at 10 mM and used, and the amount of dimethyl sulfoxide was controlled to be the same in each solvent (less than 1%) under the final solvent conditions used. The concentration of Compound 1 was 10 μM, and the biomolecule was treated identically at 10 μM. The excitation wavelength was 460 nm, and the fluorescence value at a fluorescence wavelength of 550 nm was measured using a fluorescence spectrophotometer, and is shown in FIG. 3.
The types of ions indicated on the horizontal axis in the graph of FIG. 3 are as follows: • (A) Probe 1 with DL-Homocysteine; • (B) Probe 1 with L-Cysteine; • (C) Probe 1 with L-Glutathion; • (D) Probe 1 with Hydrogen sulfide; • (E) Probe 1 with Bovine Serum Albumin; • (F) Probe 1 with Holmium (III) chloride; • (G) Probe 1 with Iron (II) chloride; • (H) Probe 1 with Iron (III) chloride; • (I) Probe 1 with Magnesium chloride; • (J) Probe 1 with Nikel (II) chloride; • (K) Probe 1 with Phosphorus pentachloride; • (L) Probe 1 with Gold trichloride; • (M) Probe 1 with Palladium (II) chloride; • (N) Probe 1 with potassium chloride; • (O) Probe 1 with Silver nitrate; • (P) Probe 1 with Sodium chloride; and • (Q) Probe 1 with Cobalt chloride.

[3] = pH-dependent homocysteine sensing ability (fluorescence at 550 nm); conditions: 10 μM probe, 10 μM homocysteine, stirred 10 minutes, excitation 460 nm, emission 550 nm
Method: The present inventors identified the homocysteine sensing ability of Compound 1 (NPO-pyr) according to acidity (pH).
Specifically, in order to observe the sensitivity of acidity (pH) to homocysteine based on the fluorescence turning-on of Compound 1, the sensitivity was identified under various acidity conditions (pH 3 to 9) while fixing the concentrations of Compound 1 (10 μM) and homocysteine (10 μM). In other words, 10 µM of homocysteine was treated under the conditions of pH 3, 5, 7, 7.4, and 9, respectively, and 10 μM of Compound 1 was stirred for 10 minutes, and then the fluorescence intensity was measured. In this connection, an excitation wavelength of 460 nm was used, and a fluorescence emission wavelength of 550 nm was measured. The fluorescence intensity is shown in the bar graph in FIG. 4.

[4] = Homocysteine sensing ability in mouse plasma (limit of detection); conditions: probe 10 μM, 10 minutes at 37° C., excitation 460 nm
Method: (§1) In order to identify the detection ability of Compound 1 (NPO-pyr) for homocysteine present in mouse plasma and feces, plasma (20 μL) isolated from blood and an extract (9.5 mg) extracted from mouse feces were dissolved in an aqueous solution (DI. H2O) (5 mL), treated with homocysteine at various concentrations (1 to 160 ng/μL), and then treated with Compound 1 (10 μM). After stirring for 10 minutes in a stirrer at 37° C. for reaction, the fluorescence spectrum was measured (excitation wavelength: 460 nm). Compound 1 was dissolved in DMSO solution at […] and used, and the amount of DMSO was ensured to be the same in each container (less than 1%) under the final solvent conditions used.

[5] = Homocysteine sensing ability in mouse feces; conditions: extract of mouse feces, probe 10 μM, 10 minutes at 37° C., excitation 460 nm
Method: as §1

[6] = Fluorescence intensity in plasma of glioblastoma mice versus normal mice; parameters: species or system mouse; conditions: plasma 7 and 14 days after the induction of glioblastoma, excitation 460 nm, emission 550 nm
Method: First, in order to prepare the experimental group, a glioblastoma mouse model was created by administering a solution containing 5.0×10^5 cells in 5 μL of cell culture media without fetal bovine serum (FBS) using LUC-U87MG cells (glioblastoma cells) to the mouse brain (thalamus).
In order to identify the reaction between Compound 1 and mouse plasma, a fluorescence measuring device (Spectro-fluorophotometer: SHIMADZU CORP. RF-6000, Japan) was used. The glass cuvette used for fluorescence measurements was a standard quartz cell with a thickness of 1 cm on all sides (internal volume=0.1 cm, Hellma Analytics, Jena, Germany).
In addition, in order to identify the reaction between Compound 1 and mouse plasma, blood was collected from the control group and the experimental group, the plasma was isolated, reacted with Compound 1, and then the fluorescence intensity was measured at an emission wavelength of 550 nm using a fluorescence measuring device (Spectro-fluorophotometer; SHIMADZU CORP. RF-6000, Japan) (excitation wavelength: 460 nm). The glass cuvette used for fluorescence measurements was a standard quartz cell with a thickness of 1 cm on all sides (internal volume=0.1 cm, Hellma Analytics, Jena, Germany).

[7] = Stability in aqueous solution; format: physicochemical; conditions: pH 7.4, PBS buffer

- stability in an aqueous solution [7]: showed stability
SMILES: O=[N+]([O-])c1ccc(Oc2ccncc2)c2nonc12 [Compound 1, 4-nitro-7-(pyridine-4-yloxy)benzo[c] [1,2,5] oxadiazole]
- time to increase in fluorescence after the addition of homocysteine (reaction time) ([1]; 10 μM probe, 10 μM homocysteine, excitation 460 nm): ≤ 5 min
- fluorescence emission with other amino thiols except homocysteine ([1]; cysteine, glutathione, hydrogen sulfide, each 10 μM): no fluorescence emission was observed
- fluorescence intensity with homocysteine (A) ([2]; 10 μM probe, 10 μM DL-homocysteine): strong fluorescence intensity value
- fluorescence turn-on under amino thiol, metal ion and biomolecule conditions other than homocysteine ([2]; 10 μM probe, 10 μM analyte): little fluorescence turn-on phenomenon
- fluorescence intensity, probe alone (Only NPO-pyr) ([2]; 10 μM): almost no fluorescence intensity value
- sensitivity of the reaction with homocysteine at other pHs (3, 5, 9) [3]: relatively weak
- sensitivity of the reaction with homocysteine at pH 7 and 7.4 [3]: most sensitive
- LOD value for homocysteine [4]: 0.176 ppm
- LOD value for homocysteine ([4]; printed conversion of the ppm value): 1.3 µM
- ability to sense homocysteine in mouse feces [5]: potential to sense homocysteine
- fluorescence intensity in plasma of the experimental group (glioblastoma mice) compared to the control group (normal mice) [6]: stronger fluorescence intensity
